# Measured values as given in ChEMBL document CHEMBL4765411, “Discovery of 2-(2-aminobenzo[d]thiazol-6-yl) benzo[d]oxazol-5-amine derivatives that regulated HPV relevant cellular pathway and prevented cervical cancer from abnormal proliferation” (Eur J Med Chem, 2020).
# Activity calls are given as the source filed them. The rule behind the calls is not given here.
# Columns and labels:
# [1] = test system: HeLa; assay: Antiproliferative activity against human HeLa cells assessed as growth inhibition at 20 uM viability after 72 hrs by SRB assay relative to control; assay type: functional; details: read-out: GI
# [2] = test system: HeLa; assay: Antiproliferative activity against human HeLa cells assessed as reduction in cell viability after 72 hrs by SRB assay; assay type: functional, cell-based
# [3] = Antiproliferative activity against human C4-1 cells assessed as reduction in cell viability after 72 hrs by SRB assay; assay type: functional, cell-based; details: C4-1, 72 h
# [4] = test system: SiHa; assay: Antiproliferative activity against human SiHa cells assessed as reduction in cell viability after 72 hrs by SRB assay; assay type: functional, cell-based
# [5] = test system: C-33-A; assay: Antiproliferative activity against human C-33-A cells assessed as reduction in cell viability after 72 hrs by SRB assay; assay type: functional, cell-based
# [6] = test system: HEK293; assay: Cytotoxicity against human HEK293 cells assessed as reduction in cell viability after 72 hrs by SRB assay; assay type: cell-based; details: HEK293, 72 h
# [7] = test system: HeLa; assay: Antiproliferative activity against human HeLa cells assessed as growth inhibition at 1 uM viability after 72 hrs by SRB assay relative to control; assay type: functional; details: read-out: GI
# [8] = test system: HeLa; assay: Antitumour activity against human HeLa cells xenografted in BALB/c nude mouse assessed as reduction in tumour growth at 50 mg/kg, ig administered for alternative days; assay type: functional, organism-based
# [9] = test system: SK-OV-3; assay: Antitumour activity against human SKOV-3 cells xenografted in BALB/c nude mouse assessed as reduction in tumour growth at 50 mg/kg, ig administered for alternative days; assay type: functional, organism-based
# [10] = test system: MCF7; assay: Antitumour activity against human MCF7 cells xenografted in BALB/c nude mouse assessed as reduction in tumour growth at 50 mg/kg, ig administered for alternative days; assay type: functional, organism-based
# [11] = test system: A-375; assay: Antitumour activity against human A375 cells xenografted in BALB/c nude mouse assessed as reduction in tumour growth at 50 mg/kg, ig administered for alternative days; assay type: functional, organism-based
# [12] = test system: A-431; assay: Antitumour activity against human A431 cells xenografted in BALB/c nude mouse assessed as reduction in tumour growth at 50 mg/kg, ig administered for alternative days; assay type: functional, organism-based
# [13] = Toxicity in BALB/c nude mouse xenografted with human HeLa cells assessed as effect on body weight at 50 mg/kg, ig administered for alternative days; assay type: organism-based; details: in vivo, po
# [14] = Toxicity in BALB/c nude mouse xenografted with human SKOV-3 cells assessed as effect on body weight at 50 mg/kg, ig administered for alternative days; assay type: organism-based; details: in vivo, po
# [15] = Toxicity in BALB/c nude mouse xenografted with human MCF7 cells assessed as effect on body weight at 50 mg/kg, ig administered for alternative days; assay type: organism-based; details: in vivo, po
# [16] = Toxicity in BALB/c nude mouse xenografted with human A375 cells assessed as effect on body weight at 50 mg/kg, ig administered for alternative days; assay type: organism-based; details: in vivo, po
# [17] = Toxicity in BALB/c nude mouse xenografted with human A431 cells assessed as effect on body weight at 50 mg/kg, ig administered for alternative days; assay type: organism-based; details: in vivo, po
# [18] = test system: HeLa; assay: Induction of cell cycle arrest in human HeLa cells assessed as decrease in accumulation in S phase at 1 uM after 24 hrs by RNAse/propidium iodide staining based flow cytometric analysis; assay type: functional
# [19] = test system: HeLa; assay: Induction of apoptosis in human HeLa cells assessed as viable cells at 1 uM after 24 hrs by Annexin V FITC/propidium iodide staining based flow cytometric analysis (reference value: 97.97%); assay type: functional; details: read-out: Activity
# [20] = test system: HeLa; assay: Induction of apoptosis in human HeLa cells assessed as early apoptotic cells at 1 uM after 24 hrs by Annexin V FITC/propidium iodide staining based flow cytometric analysis (reference value: 0.6%); assay type: functional
# [21] = test system: HeLa; assay: Induction of apoptosis in human HeLa cells assessed as late apoptotic cells at 1 uM after 24 hrs by Annexin V FITC/propidium iodide staining based flow cytometric analysis (reference value: 0.41%); assay type: functional
# [22] = test system: HeLa; assay: Induction of apoptosis in human HeLa cells assessed as necrotic cells at 1 uM after 24 hrs by Annexin V FITC/propidium iodide staining based flow cytometric analysis (reference value: 1.02%); assay type: functional
# [23] = test system: human papillomavirus 18; assay: Down regulation of viral protein E6 in HPV18 infected in human HeLa cells after 24 hrs by Western blot analysis; assay type: functional, cell-based; details: dose 0.5-10 µM
# [24] = test system: human papillomavirus 18; assay: Down regulation of viral protein E7 in HPV18 infected in human HeLa cells after 24 hrs by Western blot analysis; assay type: functional, cell-based; details: dose 0.5-10 µM
# [25] = test system: human papillomavirus 18; assay: Down regulation of viral protein E6 in HPV18 infected in human C4-1 cells after 24 hrs by Western blot analysis; assay type: functional, cell-based; details: dose 0.5-10 µM
# [26] = test system: human papillomavirus 18; assay: Down regulation of viral protein E7 in HPV18 infected in human C4-1 cells after 24 hrs by Western blot analysis; assay type: functional, cell-based; details: dose 0.5-10 µM
# [27] = target: T1, Protein E7 (human papillomavirus 18) (UniProt P06788); assay: Inhibition of viral protein E7 in HPV18 infected in human HeLa cells assessed as reduction in phosphorylation of Rb at S608 residue after 24 hrs by Western blot analysis; assay type: cell-based; details: dose 0.5-10 µM
# T1 sequence (whole entry): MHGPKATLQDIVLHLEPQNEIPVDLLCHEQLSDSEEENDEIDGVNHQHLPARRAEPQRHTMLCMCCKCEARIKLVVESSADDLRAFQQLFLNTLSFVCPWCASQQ
# [28] = target: T1, Protein E7 (human papillomavirus 18); assay: Inhibition of viral protein E7 in HPV18 infected in human HeLa cells assessed as reduction in phosphorylation of Rb at S780 residue after 24 hrs by Western blot analysis; assay type: cell-based; details: dose 0.5-10 µM
# [29] = target: T1, Protein E7 (human papillomavirus 18); assay: Inhibition of viral protein E7 in HPV18 infected in human HeLa cells assessed as reduction in E2F-1 protein […] after 24 hrs by Western blot analysis; assay type: cell-based; details: dose 0.5-10 µM
# [30] = target: T1, Protein E7 (human papillomavirus 18); assay: Inhibition of viral protein E7 in HPV18 infected in human HeLa cells assessed as reduction in DNMT1 protein […] after 24 hrs by Western blot analysis; assay type: cell-based; details: dose 0.5-10 µM
# [31] = test system: HeLa; assay: Down regulation of viral protein E7 in HPV18 infected in human HeLa cells at 5 uM after 24 hrs in presence of MG132 by Western blot analysis; assay type: functional, cell-based
compound,measurement,setting,value
Nc1nc2cccc(Cl)c2s1,inhibition of growth at 20 µM,[1],5.3%
Brc1cccc(-c2nc3ccccc3s2)c1,inhibition of growth at 20 µM,[1],2.6%
COc1cccc2sc(N)nc12,inhibition of growth at 20 µM,[1],0.6%
Cc1nc2cc(N)ccc2s1,inhibition of growth at 20 µM,[1],6.1%
c1ccc(-c2nc3ccccc3s2)cc1 [2-PHENYLBENZO[D]THIAZOLE],inhibition of growth at 20 µM,[1],2.6%
Nc1ccc(-c2nc3ccccc3o2)cc1,inhibition of growth at 20 µM,[1],19.3%
Nc1ccc2nn(-c3ccccc3)nc2c1,inhibition of growth at 20 µM,[1],53%
C[S+]([O-])c1ccc2nc(N)sc2c1 (stereo not drawn),inhibition of growth at 20 µM,[1],9.1%
Nc1ccc2oc(-c3ccccc3F)nc2c1,inhibition of growth at 20 µM,[1],42.4%
FC(F)(F)c1ccc(-c2nc3ccccc3s2)nn1,inhibition of growth at 20 µM,[1],9.7%
Oc1c(Br)cc(Br)cc1-c1nc2ccccc2s1,inhibition of growth at 20 µM,[1],4%
Nc1cccc(-c2nc3ccccc3[nH]2)c1,inhibition of growth at 20 µM,[1],0%
CN(C)c1ccc(-c2nc3cc(N)ccc3o2)cc1,inhibition of growth at 20 µM,[1],8.9%
Nc1ccc(-c2nc3cc(N)ccc3[nH]2)cc1,inhibition of growth at 20 µM,[1],4%
Nc1ccc2oc(-c3ccc4nc(N)sc4c3)nc2c1,IC50,[2],0.38 µM
same,IC50,[3],440 nM
same,IC50,[4],11.5 µM
same,IC50,[5],11.9 µM
same,IC50,[6],> 20 µM
same,inhibition of growth at 20 µM,[1],81.1%
same,inhibition of growth at 1 µM,[7],81.7%
same,Activity,[8],Active
same,Activity,[9],inactive
same,Activity,[10],inactive
same,Activity,[11],inactive
same,Activity,[12],inactive
same,Activity,[13],Non-Toxic
same,Activity,[14],Non-Toxic
same,Activity,[15],Non-Toxic
same,Activity,[16],Non-Toxic
same,Activity,[17],Non-Toxic
same,Activity,[18],Active
same,viability at 1 µM,[19],85.8%
same,Activity,[20],8.77%
same,Activity,[21],3.05%
same,Activity,[22],2.33%
same,Activity,[23],Dose-dependent effect
same,Activity,[24],Dose-dependent effect
same,Activity,[25],Dose-dependent effect
same,Activity,[26],Dose-dependent effect
same,inhibition,[27],Dose-dependent effect
same,inhibition,[28],Dose-dependent effect
same,inhibition,[29],Dose-dependent effect
same,inhibition,[30],Dose-dependent effect
same,Activity,[31],inactive
Nc1nc2ccc(-c3nc4ccccc4o3)cc2s1,IC50,[2],0.82 µM
same,inhibition of growth at 20 µM,[1],67.2%
same,inhibition of growth at 1 µM,[7],59.6%
COc1ccc(-c2nc3cc(N)ccc3o2)cc1OC,inhibition of growth at 20 µM,[1],2.3%
O=C(Nc1nc2ccccc2s1)c1cccnc1Cl,inhibition of growth at 20 µM,[1],5.5%
Nc1nc2ccc([N+](=O)[O-])cc2s1,inhibition of growth at 20 µM,[1],6%
CC[n+]1ccccc1-c1nc2ccccc2s1,inhibition of growth at 20 µM,[1],2.1%
c1cncc(-c2nc3ccccc3s2)c1,inhibition of growth at 20 µM,[1],4.4%
Nc1nc2ccc(-c3nc4ccccc4s3)cc2s1,inhibition of growth at 20 µM,[1],47.8%
c1ccc2oc(-c3ccc4ncsc4c3)nc2c1,IC50,[2],6 µM
same,inhibition of growth at 20 µM,[1],49.2%
same,inhibition of growth at 1 µM,[7],17.6%
Brc1ccc(-c2nc3ccccc3s2)cc1,inhibition of growth at 20 µM,[1],5.5%
Nc1ccc(-c2nc3ccccc3[nH]2)cc1,inhibition of growth at 20 µM,[1],1.9%
O=S(=O)(O)c1nc2ccccc2s1,inhibition of growth at 20 µM,[1],25%
Nc1nc2ccccc2[nH]1,inhibition of growth at 20 µM,[1],1.1%
N#Cc1ccc(-c2nc3ccccc3s2)cc1,inhibition of growth at 20 µM,[1],10.8%
Nc1ccc2sc(N)nc2c1,inhibition of growth at 20 µM,[1],9.6%
Oc1ccccc1-c1nc2ccccc2s1,inhibition of growth at 20 µM,[1],8.1%
Nc1ccc2oc(-c3ccccc3)nc2c1,inhibition of growth at 20 µM,[1],-2.3%
Nc1ccc(O)c(-n2nc3ccc(N)cc3n2)c1,inhibition of growth at 20 µM,[1],7.1%
O=[N+]([O-])c1ccc(-c2nc3cc([N+](=O)[O-])ccc3o2)cc1,inhibition of growth at 20 µM,[1],3.8%
Clc1ccccc1-c1nc2ccccc2s1,inhibition of growth at 20 µM,[1],4.9%
Nc1nc2c(Br)cccc2s1,inhibition of growth at 20 µM,[1],1.7%
O=[N+]([O-])c1cccc(-c2nc3ccccc3s2)c1,inhibition of growth at 20 µM,[1],4.4%
Nc1ccc2oc(-c3ccc(Cl)cc3Cl)nc2c1,inhibition of growth at 20 µM,[1],6%
Nc1ccc(Br)cc1-c1nc2ccccc2s1,inhibition of growth at 20 µM,[1],0.8%
Nc1ccc(-c2nc3cc(N)ccc3o2)cc1,inhibition of growth at 20 µM,[1],1.2%
COc1ccc2sc(N)nc2c1,inhibition of growth at 20 µM,[1],12.2%
COc1ccc(-c2nc3cc(N)ccc3o2)cc1,inhibition of growth at 20 µM,[1],42.6%
O=C(Nc1nc2ccccc2s1)c1c(Cl)cccc1Cl,inhibition of growth at 20 µM,[1],3.5%
Nc1ccc2oc(-c3cccnc3)nc2c1,inhibition of growth at 20 µM,[1],1.3%
Sc1nc2ccccc2s1 [2-MERCAPTOBENZOTHIAZOLE],inhibition of growth at 20 µM,[1],7.9%
Clc1ccc(-c2nc3ccccc3s2)c(Cl)c1,inhibition of growth at 20 µM,[1],0.3%
Nc1ccc2oc(-c3ccc4ncsc4c3)nc2c1,IC50,[2],7.08 µM
same,inhibition of growth at 20 µM,[1],58%
same,inhibition of growth at 1 µM,[7],20.3%
Nc1ccc(-c2nc3ccccc3[nH]2)c(N)c1,inhibition of growth at 20 µM,[1],0.2%
c1ccc(-c2nc3ccccc3[nH]2)nc1,inhibition of growth at 20 µM,[1],2.5%
Nc1ccc2oc(-c3cc(Cl)ccc3Cl)nc2c1,inhibition of growth at 20 µM,[1],-0.2%
Nc1cc(N)cc(-c2nc3ccccc3[nH]2)c1,inhibition of growth at 20 µM,[1],34.5%
CCOc1ccc(-c2nc3cc(N)ccc3o2)cc1,inhibition of growth at 20 µM,[1],5.8%
C[n+]1ccccc1-c1nc2ccccc2s1,inhibition of growth at 20 µM,[1],1.2%
Cc1nc(-c2nc3ccccc3s2)n[nH]1,inhibition of growth at 20 µM,[1],6.6%
Nc1cccc(-c2nc3ccccc3s2)c1,inhibition of growth at 20 µM,[1],1.7%
COc1ccc2nc(N)sc2c1,inhibition of growth at 20 µM,[1],-3.4%
CCNC(=O)Nc1ccc2oc(-c3ccc4nc(N)sc4c3)nc2c1,inhibition of growth at 20 µM,[1],6.8%
same,inhibition of growth at 1 µM,[7],0.7%
Nc1ccc2nc(N)sc2c1,inhibition of growth at 20 µM,[1],6.9%
COc1ccc(-c2nc3ccccc3s2)cc1,inhibition of growth at 20 µM,[1],0.1%
Nc1ccc2nc(-c3ccccc3)oc2c1,inhibition of growth at 20 µM,[1],-0.7%
Nc1ccc2oc(-c3cccc4c(Br)cccc34)nc2c1,inhibition of growth at 20 µM,[1],13.8%
Nc1ccc2oc(-c3cc(I)ccc3Cl)nc2c1,inhibition of growth at 20 µM,[1],26.5%
